ChEMBL document CHEMBL4417631, “Oral peptide inhibitors of interleukin-23 receptor and their use to treat inflammatory bowel diseases” (2017)
Where a SMILES comes first, the peptide text is derived from it. [ ]: non-standard residue; d: D form. hLeu = CC(C)CC[C@H](N)C(=O)O

Key:
[1] = Inhibition of interleukin-23 binding to rat interleukin-23 receptor incubated for 2 hrs by competitive binding ELISA
[2] = target: T1, Interleukin-23 receptor (Homo sapiens, UniProt Q5VWK5); test: Inhibition of interleukin-23 binding to human interleukin-23 receptor incubated for 2 hrs by competitive binding ELISA
T1 sequence (Q5VWK5 whole entry): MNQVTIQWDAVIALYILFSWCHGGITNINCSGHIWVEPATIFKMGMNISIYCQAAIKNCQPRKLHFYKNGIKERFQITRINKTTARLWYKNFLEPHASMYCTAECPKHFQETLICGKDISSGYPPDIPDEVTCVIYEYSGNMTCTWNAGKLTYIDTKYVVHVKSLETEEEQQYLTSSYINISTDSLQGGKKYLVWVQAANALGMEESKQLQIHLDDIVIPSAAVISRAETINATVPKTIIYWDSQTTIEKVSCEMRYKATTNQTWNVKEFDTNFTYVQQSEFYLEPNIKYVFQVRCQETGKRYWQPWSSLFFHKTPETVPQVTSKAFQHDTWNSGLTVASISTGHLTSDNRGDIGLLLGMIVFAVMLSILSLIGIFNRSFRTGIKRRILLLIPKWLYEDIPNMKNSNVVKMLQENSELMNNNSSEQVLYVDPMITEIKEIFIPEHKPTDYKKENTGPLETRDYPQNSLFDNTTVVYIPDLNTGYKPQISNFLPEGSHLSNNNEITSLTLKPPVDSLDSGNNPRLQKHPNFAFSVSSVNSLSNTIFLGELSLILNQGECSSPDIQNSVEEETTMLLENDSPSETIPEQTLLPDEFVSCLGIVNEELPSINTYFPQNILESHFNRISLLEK

[3] = target: T1, Interleukin-23 receptor; test: Inhibition of interleukin-23 receptor in human DB cells assessed as reduction in IL-23-stimulated STAT3 phosphorylation incubated for 30 mins by HTRF assay; type: cell-based
[4] = Half life in simulated intestinal fluid at 20 uM by LC-MS/MS analysis; type: ADME

| IC50 [1] [nM] | Compound | further results |
| --- | --- | --- |
| 28 | CC(=O)N[C@@H](CS)C(=O)N[C@H](C(=O)N[C@H](C(=O)N[C@@H](Cc1c[nH]c2ccccc12)C(=O)N[C@@H](CCC(N)=O)C(=O)N[C@@H](CS)C(=O)N[C@@H](Cc1ccc(O)cc1)C(=O)N[C@@H](Cc1c[nH]c2ccccc12)C(=O)N[C@@H](CCC(C)C)C(=O)N[C@@H](CCC(=O)O)C(=O)N[C@@H](CC(N)=O)C(=O)NCC(N)=O)[C@@H](C)O)[C@@H](C)O (Ac-CTTWQCYW[hLeu]ENG-NH2) |  |
| 53 | CC(=O)N[C@@H](CS)C(=O)N[C@@H](CCC(N)=O)C(=O)N[C@H](C(=O)N[C@@H](Cc1c[nH]c2ccccc12)C(=O)N[C@@H](CCC(N)=O)C(=O)N[C@@H](CS)C(=O)N[C@@H](Cc1ccc(O)cc1)C(=O)N[C@@H](Cc1c[nH]c2ccccc12)C(=O)N[C@@H](CCC(C)C)C(=O)N[C@@H](CCC(=O)O)C(=O)N[C@@H](CCC(=O)O)C(=O)NCC(N)=O)[C@@H](C)O (Ac-CQTWQCYW[hLeu]EEG-NH2) |  |
| 20 | CC(=O)N[C@@H](CS)C(=O)N[C@@H](CCC(N)=O)C(=O)N[C@H](C(=O)N[C@@H](Cc1c[nH]c2ccccc12)C(=O)N[C@@H](CCC(N)=O)C(=O)N[C@@H](CS)C(=O)N[C@@H](Cc1ccc(O)cc1)C(=O)N[C@@H](Cc1c[nH]c2ccccc12)C(=O)N[C@@H](Cc1cccnc1)C(=O)N[C@@H](CCC(=O)O)C(=O)N[C@@H](CC(N)=O)C(=O)NCC(N)=O)[C@@H](C)O |  |
| 37 | CC(=O)N[C@@H](CS)C(=O)N[C@@H](CCC(N)=O)C(=O)N[C@H](C(=O)N[C@@H](Cc1c[nH]c2ccccc12)C(=O)N[C@@H](CCC(N)=O)C(=O)N[C@@H](CS)C(=O)N[C@@H](Cc1ccc(O)cc1)C(=O)N[C@@H](Cc1cccc2ccccc12)C(=O)N[C@@H](CCC(C)C)C(=O)N[C@@H](CCC(=O)O)C(=O)N[C@@H](CC(N)=O)C(=O)NCC(N)=O)[C@@H](C)O |  |
| 51 | CC(=O)N[C@@H](CS)C(=O)N[C@@H](CCC(N)=O)C(=O)N[C@H](C(=O)N[C@@H](Cc1c[nH]c2ccccc12)C(=O)N[C@@H](CCC(N)=O)C(=O)N[C@@H](CS)C(=O)N[C@@H](Cc1ccc(O)cc1)C(=O)N[C@@H](Cc1ccc(-c2ccccc2)cc1)C(=O)N[C@@H](CCC(C)C)C(=O)N[C@@H](CCC(=O)O)C(=O)N[C@@H](CC(N)=O)C(=O)NCC(N)=O)[C@@H](C)O |  |
| 69 | CC(=O)N[C@@H](CS)C(=O)N[C@@H](CCCN)C(=O)N[C@H](C(=O)N[C@@H](Cc1c[nH]c2ccccc12)C(=O)N[C@@H](CCC(N)=O)C(=O)N[C@@H](CS)C(=O)N[C@@H](Cc1ccc(O)cc1)C(=O)N[C@@H](Cc1c[nH]c2ccccc12)C(=O)N[C@@H](CCCNC(=N)N)C(=O)N[C@H](C(=O)N[C@@H](Cc1ccccc1)C(=O)NCC(=O)NCCOCC(=O)N[C@H](CCCCN)C(N)=O)C(C)C)[C@@H](C)O |  |
| 26 | CC(=O)N[C@@H](CC(C)C)C(=O)N[C@@H](CS)C(=O)N[C@@H](CCC(N)=O)C(=O)N[C@H](C(=O)N[C@@H](Cc1c[nH]c2ccccc12)C(=O)N[C@@H](CCC(N)=O)C(=O)N[C@@H](CS)C(=O)N[C@@H](Cc1ccc(O)cc1)C(=O)N[C@@H](Cc1c[nH]c2ccccc12)C(=O)N[C@@H](CCC(C)C)C(=O)N[C@@H](CCC(=O)O)C(=O)N[C@@H](CC(N)=O)C(=O)NCC(N)=O)[C@@H](C)O |  |

Continued, molecule first:

| Compound | IC50 [1] [nM] | further results |
| --- | --- | --- |
| CC(=O)N[C@@H](CS)C(=O)N(C)[C@@H](CCCNC(=N)N)C(=O)N[C@H](C(=O)N[C@@H](Cc1c[nH]c2ccccc12)C(=O)N[C@@H](CCC(N)=O)C(=O)N[C@@H](CS)C(=O)N[C@@H](Cc1ccc(O)cc1)C(=O)N[C@@H](Cc1c[nH]c2ccccc12)C(=O)N[C@@H](CCCNC(=N)N)C(=O)N[C@H](C(=O)N[C@@H](Cc1ccccc1)C(=O)NCC(=O)NCCC(=O)N[C@H](CCCCN)C(N)=O)C(C)C)[C@@H](C)O | 192 |  |
| CC(=O)N[C@@H](CS)C(=O)N[C@@H](C)C(=O)N[C@@H](CC(=O)O)C(=O)N[C@@H](Cc1c[nH]c2ccccc12)C(=O)N[C@H](C(=O)N[C@@H](CS)C(=O)N[C@@H](Cc1ccc(O)cc1)C(=O)N[C@@H](Cc1c[nH]c2ccccc12)C(=O)N[C@@H](CCCNC(=N)N)C(=O)N[C@@H](CCCCN)C(=O)N[C@@H](Cc1ccccc1)C(=O)NCC(=O)NCCC(=O)N[C@H](CCCCN)C(N)=O)C(C)C | 33 |  |
| CC(=O)N[C@@H](CS)C(=O)N[C@@H](CCC(N)=O)C(=O)N[C@H](C(=O)N[C@@H](Cc1c[nH]c2ccccc12)C(=O)N[C@@H](CCC(N)=O)C(=O)N[C@@H](CS)C(=O)N[C@@H](Cc1ccc(O)cc1)C(=O)N[C@@H](Cc1c[nH]c2ccccc12)C(=O)N[C@@H](CCCNC(=N)N)C(=O)N[C@H](C(=O)N[C@@H](Cc1ccccc1)C(=O)NCC(=O)NCCOCC(=O)N[C@H](CCCCN)C(N)=O)C(C)C)[C@@H](C)O | 62 |  |
| CC(=O)N[C@@H](CS)C(=O)N[C@@H](CO)C(=O)N[C@H](C(=O)N[C@@H](Cc1c[nH]c2ccccc12)C(=O)N[C@@H](CCC(=O)O)C(=O)N[C@@H](CS)C(=O)N[C@@H](Cc1ccc(O)cc1)C(=O)N[C@@H](Cc1c[nH]c2ccccc12)C(=O)N[C@@H](Cc1cnc[nH]1)C(=O)N[C@H](C(=O)N[C@@H](Cc1ccc(O)cc1)C(=O)NCC(N)=O)[C@@H](C)O)[C@@H](C)O | 286 |  |
| CC(=O)N[C@@H](CS)C(=O)N[C@@H](CCCNC(=N)N)C(=O)N[C@H](C(=O)N[C@@H](Cc1c[nH]c2ccccc12)C(=O)N[C@@H](CCC(N)=O)C(=O)N[C@@H](CS)C(=O)N[C@@H](Cc1ccc(O)cc1)C(=O)N[C@@H](Cc1c[nH]c2ccccc12)C(=O)N[C@@H](CC(C)C)C(=O)N[C@@H](CCCNC(=N)N)C(=O)N[C@@H](CC(C)C)C(=O)NCC(=O)N[C@@H](CC(=O)O)C(=O)N[C@@H](CCC(=O)O)C(=O)NCC(N)=O)[C@@H](C)O (Ac-CRTWQCYWLRLGDEG-NH2) | 483 |  |
| CC(=O)N[C@@H](CS)C(=O)N[C@@H](CCCNC(=N)N)C(=O)N[C@H](C(=O)N[C@@H](Cc1c[nH]c2ccccc12)C(=O)N[C@@H](CCC(N)=O)C(=O)N[C@@H](CS)C(=O)N[C@@H](Cc1ccc(O)cc1)C(=O)N[C@@H](Cc1c[nH]c2ccccc12)C(=O)N[C@@H](CCCNC(=N)N)C(=O)N[C@@H](CCC(=O)O)C(=O)N[C@@H](CC(N)=O)C(=O)NCC(=O)N[C@@H](C)C(=O)N[C@H](CCCCN)C(N)=O)[C@@H](C)O | 86 |  |
| CC(=O)N[C@@H](Cc1ccccc1)C(=O)N[C@@H](CS)C(=O)N[C@@H](CCC(N)=O)C(=O)N[C@H](C(=O)N[C@@H](Cc1c[nH]c2ccccc12)C(=O)N[C@@H](CCC(N)=O)C(=O)N[C@@H](CS)C(=O)N[C@@H](Cc1ccc(O)cc1)C(=O)N[C@@H](Cc1c[nH]c2ccccc12)C(=O)N[C@@H](CCC(C)C)C(=O)N[C@@H](CCC(=O)O)C(=O)N[C@@H](CC(N)=O)C(=O)NCC(N)=O)[C@@H](C)O | 25 |  |
| CC(=O)N[C@@H](CS)C(=O)N[C@@H](CCC(N)=O)C(=O)N[C@H](C(=O)N[C@@H](Cc1c[nH]c2ccccc12)C(=O)N[C@@H](CCC(N)=O)C(=O)N[C@@H](CS)C(=O)N[C@@H](Cc1ccc(O)cc1)C(=O)N[C@@H](Cc1c[nH]c2ccccc12)C(=O)N[C@@H](CCC(C)C)C(=O)N[C@@H](CCC(=O)O)C(=O)N[C@@H](CC(N)=O)C(=O)N[C@@H](CCC(=O)O)C(N)=O)[C@@H](C)O | 1000 |  |
| CC(=O)N[C@@H](CS)C(=O)N[C@@H](CCN)C(=O)N[C@H](C(=O)N[C@@H](Cc1c[nH]c2ccccc12)C(=O)N[C@@H](CCC(N)=O)C(=O)N[C@@H](CS)C(=O)N[C@@H](Cc1ccc(O)cc1)C(=O)N[C@@H](Cc1c[nH]c2ccccc12)C(=O)N[C@@H](CCCNC(=N)N)C(=O)N[C@H](C(=O)N[C@@H](Cc1ccccc1)C(=O)NCC(=O)NCCOCC(=O)N[C@H](CCCCN)C(N)=O)C(C)C)[C@@H](C)O | 51 |  |
| CC(=O)N[C@@H](CS)C(=O)N[C@@H](CCC(N)=O)C(=O)N[C@H](C(=O)N[C@@H](Cc1c[nH]c2ccccc12)C(=O)N[C@@H](CCC(N)=O)C(=O)N[C@@H](CS)C(=O)N[C@@H](Cc1ccc(O)cc1)C(=O)N[C@@H](Cc1cccc2ccccc12)C(=O)N[C@@](C)(CC(C)C)C(=O)N[C@@H](CCC(=O)O)C(=O)N[C@@H](CC(N)=O)C(=O)NCC(N)=O)[C@@H](C)O | 67 |  |
| CC(=O)N[C@@H](CS)C(=O)N[C@@H](CCC(N)=O)C(=O)N[C@H](C(=O)N[C@@H](Cc1c[nH]c2ccccc12)C(=O)N[C@@H](CCC(N)=O)C(=O)N[C@@H](CS)C(=O)N[C@@H](Cc1ccc(O)cc1)C(=O)N[C@@H](Cc1c[nH]c2ccccc12)C(=O)N[C@@H](CCC(C)C)C(=O)N[C@@H](CCC(=O)O)C(=O)N1CCC[C@H]1C(=O)NCC(N)=O)[C@@H](C)O | 140 |  |
| CC(=O)N[C@@H](CS)C(=O)N[C@@H](CCC(N)=O)C(=O)N[C@H](C(=O)N[C@@H](Cc1c[nH]c2ccccc12)C(=O)N[C@@H](CCC(N)=O)C(=O)N[C@@H](CS)C(=O)N[C@@H](Cc1ccc2ccccc2c1)C(=O)N[C@@H](Cc1c[nH]c2ccccc12)C(=O)N[C@@H](CCC(C)C)C(=O)N[C@@H](CCC(=O)O)C(=O)N[C@@H](CC(N)=O)C(=O)NCC(N)=O)[C@@H](C)O | 73 |  |
| CC(=O)N[C@H]1CCSC[C@@H](C(=O)N[C@@H](Cc2ccc(O)cc2)C(=O)N[C@@H](Cc2c[nH]c3ccccc23)C(=O)N[C@@H](CCC(C)C)C(=O)N[C@@H](CCC(=O)O)C(=O)N[C@@H](CC(N)=O)C(=O)NCC(N)=O)NC(=O)[C@H](CCC(N)=O)NC(=O)[C@H](Cc2c[nH]c3ccccc23)NC(=O)[C@H]([C@@H](C)O)NC(=O)[C@H](CCC(N)=O)NC1=O |  | IC50 [2]: 25 to 100 nM; IC50 [3]: 10 to 25 nM; half-life at 20 µM [4]: < 1 h |
